Experimental findings from patent US6410597B1, “Hydroxyalkyl amide analogs of ceramide” (Virginia Commonwealth University, priority 2000, dated 2002) are described below.

In one series the test system is RT2 cells. Kind of series: MTS proliferation assay of malignant glioma cells. It is filed as cell-based, rat. The settings on record: RT2, 6 days; S16 100 μM, S18 100 or 200 μM. Here is the method: (§1) FIGS. 5A, 5B and 5C. MTS proliferation assay of in vitro brain tumor cells (malignant glioma) treated with structural analogues of ceramic. (•) control; (∘) S16, 100 μM; (▾) S18, 200 μM; (∇) S18, 100 μM. 5A: U87 cells (6 days); 5B: RT2 cells (6 days); 5C: T98 cells (5 days).
(§2) Murine neuroblastoma x rat glioma NG108-15 and murine neuroblastoma x rat dorsal root ganglion F-11 cells were kindly provided by Drs. Robert Ledeen (New Jersey School of Medicine, Newark, N.J.) and Glyn Dawson (University of Chicago, Chicago, Ill.), respectively. PC12 (rat adrenal pheochromocytoma, ATCC CRL 1721) cells were purchased from the American Type Culture Collection (Manassas, Va.). U87 and T98 human glioma cells were purchased from the American Type Culture Collection (Manassas, Va.). RT2 rat glioma cells were a gift.
(§3) CU87, T98 or RT2 malignant glioma cells (750/well) were plated onto 96-well plates and allowed to grow for 5-6 days in the presence of the ceramic analogues S16, S18 or B16, or control media. The CellTiter96® Aqueous One cell proliferation assay (Promega, Inc.) was used to quantify glioma cell proliferation. In this assay, the amount of formazan product (490 nm absorbance) made from the conversion of [3-(,5-dimethyl-2-yl)-5-(3-carboxymethoxyphenyl)-2-(4-sulfophenyl)-2H-tetrazolium, inner salt (MTS) by dehydrogenase enzymes of metabolically active cells is directly proportional to the number of living cells in culture.
(§4) The effect of the compounds S16, S18, and B16 on the ability of U87, RT2 and T98 glioma cells to proliferate in vitro was investigated as described in Methods and the results are presented in FIGS. 5A, 5B and 5C, respectively.

The next series deals with T98 cells. The series is described as follows: MTS proliferation assay of malignant glioma cells. The settings on record: T98, 5 days; S16 100 μM, S18 100 or 200 μM. It is filed as cell-based, human. Here is the method: as §1, §2, §3, §4
Another series relates to U87 cells. The series is described as follows: MTS proliferation assay of malignant glioma cells. The class given is cell-based, human. The settings on record: U87, 6 days; S16 100 μM, S18 100 or 200 μM. Here is the method:
as §1, §2, §3, §4

For series [1], the system named is Neuroblastoma cells (NG108-15 or F-11). The series is described as follows: Effect of alkyl chain length on apoptotic potential of N-acylated compounds. The class given is cell-based. Particulars: 30% confluence, overnight, various concentrations. Here is the method: (§5) Apoptosis was analyzed by DNA fragmentation, in situ terminal nucleotidyl transferase assay, and staining of condensed chromatin with Hoechst dye 33258 as described elsewhere (Ji et al., 1995; Bieberich et al., 1999) and as further outlined below. The degree of cell death was monitored by determination of the number of floating cells and cells stained with 0.4% trypan blue (Wang et al., 1999).
Neuroblastoma cells (NG108-15 or F-11) were grown to 30% confluence and incubated overnight with various concentrations of N-acyl compounds containing carbon chains with 8, 16 and 18 carbons, as well as C16 ethanolamine. The floating cells were harvested from the medium and the amount of cellular protein determined for calculation of dead cells. In addition, cell death was quantified by staining with trypan blue. The attached cells were stained with Hoechst dye 33258 for calculation of apoptotic cells with condensed chromatin. The number of apoptotic cells was determined by counting 100 stained cells in 20 different areas on tissue culture dishes from three independent experiments.
The effect of alkyl chain length on the apoptotic potential of S16 and two compounds differing only in the length of the alkyl chains, S8 (8 carbons)and S18 (18 carbons) was investigated as described in Methods. Also, the contribution of the second β-hydroxymethyl group of S16 was analyzed by comparison with the effect of C16 EA (C16 ethanolamine) on apoptosis. […] As such, the preferred length is 12-20 carbons.

Series [2] relates to NG108-15 cells. The series is described as follows: Dependence of S16 induced apoptosis on cell density. The settings on record: 100 μM S16 overnight; cell density below 20% or above 50%. The class given is cell-based, murine neuroblastoma x rat glioma. Here is the method: as §5
Cells were grown to varying degrees of confluence (100%=1.0×10^5 cells/cm^2) and then incubated overnight with 100 μM S16. The floating cells were harvested from the medium and the amount of cellular protein determined for calculation of dead cells. In addition, cell death was quantified by staining with trypan blue. The attached cells were stained with Hoechst dye 33258 for calculation of apoptotic cells with condensed chromatin. The number of apoptotic cells was determined by counting 100 stained cells in 20 different areas on tissue culture dishes from three independent experiments.
(§6) The dependence of the rate of S16 induced apoptosis of NG108-15 cells on cell density was investigated as described in methods and the results are given in FIG. 3. […] This observation was confirmed by determination of cell density-dependent DNA fragmentation (laddering) upon incubation with S16. Cells were incubated with 100 μM S16 for 15 hours.

In series [3] the test system is F-11 cells. The series is described as follows: Cell density-dependent DNA fragmentation (laddering). It is filed as cell-based, murine neuroblastoma x rat dorsal root ganglion. The settings on record: 100 μM S16, 15 hours; 30% confluent compared with 100% confluent cells.
Series [4] in a line: General toxicity during in vivo treatment. The settings on record: up to a total of 200 mg/kg/day, treatment for 14 days. As for the experimental part:
(§7) The intraperitoneal administration of ceramic analogs started one day after grafting and was performed twice per day with 0.7 ml of 2 mM S16 or 4 mM S18 corresponding to 50-100 mg/kg per mouse. The compounds were predissolved in dimethylsulfoxide (DMSO) at a maximum concentration of 250 mM and then serially diluted to 2 mM S16 or 4 mM S18 in 20% bovine serum albumin (BSA), 500 μM sodium stearate, 0.9% sodium chloride.
Athymic mice were grafted with neuroblastoma tumors by subcutaneous injection and treated by intraperitoneal or intratumoral injection of S16 as described in Methods. Control mice received no treatment, or treatment with C-16 EA. […] Furthermore, the first measurable tumors appeared 2 days later in mice treated with S16 than in control mice.

In series [5] the test system is F-11 cells. The series is described as follows: Alteration of ceramic and sphingolipid levels (HPTLC) upon incubation with S16. The class given is cell-based, murine neuroblastoma x rat dorsal root ganglion.
Source text: as §2
(§8) Lipids were prepared and analyzed by HPTLC as described previously (Freischutz et al., 1997).
(§9) NG108-15 or F-11 cells were incubated with 100 μM S16 overnight and endogenous ceramic analyzed by HPTLC of neutral lipids corresponding to 200 μg of cellular protein applied per lane. The HPTLC plate was developed in CHCl3/HOAc (9:1), v/v) and sphingolipids stained with cupric acetate/phosphoric acid reagent. Levels of ceramic, sphingomyelin, and neutral lipids were determined by densitometric analysis and comparison with various amounts of standard lipids. […] However, the concentration of ceramic in F-11 and NG108-15 cells at 20% confluence was elevated by about 50-80%.

Another series has as its system PC12 cells. The series is described as follows: Dependence of apoptosis on cell differentiation (Hoechst dye 33258 staining). The settings on record: 24 hours; undifferentiated vs forskolin-differentiated PC12 cells. It is filed as cell-based, rat.
Source text: as §2, §5
The dependence of apoptosis upon differentiation of cells was analyzed by incubating undifferentiated PC12 cells and PC12 cells which had been induced to differentiate with S16 for 24 hours. Differentiation was induced by preincubation with 10 μM forskolin for 48 hrs. The extent of apoptosis was determined by staining with Hoechst dye 33258.
The apoptotic potential of S16 with respect to cell differentiation was investigated as described in Methods.

In series [6] the test system is NG108-15 cells. Kind of series: Alteration of ceramic and sphingolipid levels (HPTLC) upon incubation with S16. The class given is cell-based, murine neuroblastoma x rat glioma.
Source text: as §2, §8, §9

Series [7] relates to NG108-15 cells. The series is described as follows: Cell density-dependent DNA fragmentation (laddering). The class given is cell-based, murine neuroblastoma x rat glioma. Particulars: 100 μM S16, 15 hours; 30% confluent compared with 100% confluent cells. As for the experimental part: as §5, §6
The test system of series [8] is NG108-15 or F-11 neuroblastoma tumors. Kind of series: In vivo tumor model in athymic mice. Set-up: species or system athymic NU/NU mice. Here is the method: A total of 1×10^6 NG108-15 or F-11 cells in 200 μl of phosphate buffered saline (PBS) was subcutaneously injected into each side of athymic NU/NU mice (Harlan) for generation of an in vivo brain tumor model in mouse skin. The resulting tumors were treated either intraperitoneally or by direct intratumor injection of ceramic analogs. Tumor growth rates and treatment results were the same within experimental error regardless of whether NG108-15 or F-11 cells were used.
Tumor growth was monitored by caliper measurement. The tumor volume was calculated by the formula: tumor size [mm^3]=(tumor width [mm])^2×tumor length [mm].
as §7
The intratumoral administration of ceramic analogs was initiated when tumor size was 30-50 mm^3 and consisted of daily injections of a 10-fold concentrated analog solution prepared as described above for S16 or of 2 mM B16 in 0.9% sodium chloride. The final concentration was calculated to be 200 μM when applied in a volume of 10% of the tumor size. Tumor volume was measured and calculated as described above.
Athymic mice were grafted with neuroblastoma tumors by subcutaneous injection and treated by intraperitoneal or intratumoral injection of S16 as described in Methods. Control mice received no treatment, or treatment with C-16 EA. […] Furthermore, the first measurable tumors appeared 2 days later in mice treated with S16 than in control mice. […]
FIG. 9. […] The tumor volume was determined by caliper measurement and was about 4 ml for the mouse on the left side (untreated for 10 days) and 2 ml for the mouse on the right side (treated for 14 days).

[9] abbreviates: 100 μM S16, 100% confluent cells.
Setting [10] is: 100 μM S16 overnight, cells at 20% confluence.

Structures are written as SMILES. “Also recorded” adds a separate entry of the source.

For the compound `CCCCCCCCCCCCCCCC(=O)N(CCO)CCO` [B16, N,N-bis(2-hydroxyethyl) palmitamide], the cellular proliferation result in the series with RT2 cells, in the series with T98 cells and with U87 cells was “marked decrease in cellular proliferation; also recorded: virtually eliminating the proliferation” throughout.
Regarding `CCCCCCCCCCCCCCCC(=O)NCCO` [C16 EA, N-palmitoyl ethanolamine, reference compound], the apoptotic potential result in series [1] is given as “almost no apoptosis”.
With `CCCCCCCCCCCCCCCC(=O)NC(CO)CO` [S16, N-palmitoyl serinol], the degree of apoptosis entry in the series with NG108-15 cells [2] is reported as “markedly decreased”. Also, the “laddering of 200-base pair fragments” value in the series with F-11 cells [3] and in the series with NG108-15 cells [7] was “increased markedly” in each case. For the same compound, the “effects of general toxicity” value in series [4] was “No effects of general toxicity were observable”. Besides, the “alteration of endogenous ceramic” value with F-11 cells [5] (setting [9]) and in the series with NG108-15 cells [6] (setting [9]) was “no significant alteration” in each case. The “alteration of the glycosphingolipid composition” value in the series with F-11 cells [5] (100 μM S16 overnight) and with NG108-15 cells [6] (100 μM S16 overnight) was “no detectable alteration” throughout. The “alteration of the level of sphingomyelin” value in the series with F-11 cells [5] (100 μM S16 overnight) and in the series with NG108-15 cells [6] (100 μM S16 overnight) was “no detectable alteration” in each case. Besides, the “concentration of ceramic elevated” value with F-11 cells [5] (setting [10]) and in the series on NG108-15 cells [6] (setting [10]) was 50-80% throughout. Also, the apoptotic potential entry in series [1] is listed as “optimal”. The “apoptosis (staining with Hoechst dye)” value with PC12 cells is given as “only undifferentiated cells showed the typical staining”. In addition, the cellular proliferation result with RT2 cells, with T98 cells and in the series on U87 cells was “marked decrease in cellular proliferation” throughout. Also, in series [8] (intraperitoneal or intratumoral injection), the “final size of the tumors relative to untreated or C16-EA treated mice” value was 30-35%. For the same compound, in series [8] (mice treated with S16), the “delay of appearance of first measurable tumors versus control mice” value is reported as 2 days.
For the compound `CCCCCCCC/C=C\CCCCCCCC(=O)NC(CO)CO` [S18, N-oleoyl serinol], in [1], the apoptotic potential entry is reported as “optimal”. The cellular proliferation entry with RT2 cells, in the series on T98 cells and with U87 cells was “marked decrease in cellular proliferation; also recorded: virtually eliminating the proliferation” throughout. The “tumor volume (caliper measurement)” value in series [8] (F-11 grafts, intra-peritoneal 0.7 ml of 4 mM twice a day for 14 days, untreated mouse about 4 ml at 10 days) was roughly 2 mL.
